Assay results reported in ChEMBL document CHEMBL1201862, “PubChem BioAssay data set” (2004).
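Following 48 hours of exposure in 96-well plates, responses at five concentrations were used to interpolate endpoints linearly. GI50 = concentration required for 50% inhibition of growth.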 Active and inactive are the calls of the source. Cut-off read from the data, not from the text of the source: active = GI50 up to about 1.1 µM and inactive = higher.

Key:
Assay in all cases: NCI-60 cell line screen, 48 h
NCI-H226 = tested on: NCI-H226
UACC-257 = tested on: UACC-257
CAKI-1 = tested on: CAKI-1
PC-3 = tested on: PC-3
COLO 205 = tested on: COLO 205
NCI-H23 = tested on: NCI-H23
Hs-578T = tested on: Hs-578T
BT-549 = tested on: BT-549
HT-29 = tested on: HT-29
786-0 = tested on: 786-0
A498 = tested on: A498
KM12 = tested on: KM12
M14 = tested on: M14
SK-MEL-28 = tested on: SK-MEL-28
MDA-MB-435 = tested on: MDA-MB-435
LOX IMVI = tested on: LOX IMVI
DU-145 = tested on: DU-145
T47D = tested on: T47D
IGROV-1 = tested on: IGROV-1
SK-MEL-2 = tested on: SK-MEL-2
SF-295 = tested on: SF-295
RXF 393 = tested on: RXF 393
EKVX = tested on: EKVX
OVCAR-4 = tested on: OVCAR-4
MCF7 = tested on: MCF7
HCC 2998 = tested on: HCC 2998
SF-539 = tested on: SF-539
HCT-15 = tested on: HCT-15
TK-10 = tested on: TK-10
SNB-75 = tested on: SNB-75
SK-MEL-5 = tested on: SK-MEL-5
SW-620 = tested on: SW-620
HOP-62 = tested on: HOP-62
HOP-92 = tested on: HOP-92
OVCAR-5 = tested on: OVCAR-5
HCT-116 = tested on: HCT-116
SF-268 = tested on: SF-268
A549 = tested on: A549
SK-OV-3 = tested on: SK-OV-3
MDA-MB-231 = tested on: MDA-MB-231
K562 = tested on: K562
MDA-N = tested on: MDA-N
ACHN = tested on: ACHN
UO-31 = tested on: UO-31
OVCAR-3 = tested on: OVCAR-3
CCRF-CEM = tested on: CCRF-CEM
SN12C = tested on: SN12C
UACC-62 = tested on: UACC-62
NCI-H522 = tested on: NCI-H522
OVCAR-8 = tested on: OVCAR-8
NCI-H460 = tested on: NCI-H460
RPMI-8226 = tested on: RPMI-8226
NCI/ADR-RES = tested on: NCI/ADR-RES
Malme-3M = tested on: Malme-3M
SR = tested on: SR
U-251 = tested on: U-251
HL-60 = tested on: HL-60
SNB-19 = tested on: SNB-19

Measured: GI50

COc1cc(OC)c(C2(c3c(OC(C)C)c(=O)c3=O)SCCCS2)cc1OC
> 100 µM: HCT-15
inactive: NCI-H226 > 100 µM | UACC-257 > 100 µM | CAKI-1 > 100 µM | PC-3 > 100 µM | COLO 205 > 100 µM | NCI-H23 > 100 µM | Hs-578T > 100 µM | BT-549 > 100 µM | HT-29 > 100 µM | 786-0 > 100 µM | A498 > 100 µM | KM12 > 100 µM | M14 > 100 µM | SK-MEL-28 > 100 µM | MDA-MB-435 > 100 µM | LOX IMVI > 100 µM | DU-145 > 100 µM | T47D > 100 µM | IGROV-1 > 100 µM | SK-MEL-2 > 100 µM | SF-295 > 100 µM | RXF 393 > 100 µM | EKVX > 100 µM | OVCAR-4 > 100 µM | MCF7 > 100 µM | HCC 2998 > 100 µM | SF-539 > 100 µM | TK-10 > 100 µM | SNB-75 > 100 µM | SK-MEL-5 > 100 µM | SW-620 > 100 µM | HOP-62 > 100 µM | HOP-92 > 100 µM | OVCAR-5 > 100 µM | HCT-116 > 100 µM | SF-268 > 100 µM | A549 > 100 µM | SK-OV-3 > 100 µM | MDA-MB-231 > 100 µM | K562 > 100 µM | MDA-N > 100 µM | ACHN > 100 µM | UO-31 > 100 µM | OVCAR-3 > 100 µM | CCRF-CEM > 100 µM | SN12C > 100 µM | UACC-62 > 100 µM | NCI-H522 > 100 µM | OVCAR-8 > 100 µM | NCI-H460 > 100 µM | RPMI-8226 > 100 µM | NCI/ADR-RES > 100 µM | Malme-3M > 100 µM | SR > 100 µM | U-251 > 100 µM | HL-60 > 100 µM | SNB-19 > 100 µM
